Laboratory results reported in PMC10762035, “Molecular basis of human trace amine-associated receptor 1 activation” (Nature Communications, 2024).
Residue numbers refer to the chain shown, from its start. Several values for one entry are separate records, joined by “and”; a condition that tells them apart may be missing. Equal entries are not always repeated.

Experiments:
Type in all cases: cell-based
[1] = target: T1, hTA1 T271A (Homo sapiens, UniProt Q96RJ0, T271A); experiment: GloSensor cAMP accumulation assay, T271A mutant
T1 construct: expressed in transfected cells; host or cells: HEK293T
T1 sequence (Q96RJ0 1-339 T271A): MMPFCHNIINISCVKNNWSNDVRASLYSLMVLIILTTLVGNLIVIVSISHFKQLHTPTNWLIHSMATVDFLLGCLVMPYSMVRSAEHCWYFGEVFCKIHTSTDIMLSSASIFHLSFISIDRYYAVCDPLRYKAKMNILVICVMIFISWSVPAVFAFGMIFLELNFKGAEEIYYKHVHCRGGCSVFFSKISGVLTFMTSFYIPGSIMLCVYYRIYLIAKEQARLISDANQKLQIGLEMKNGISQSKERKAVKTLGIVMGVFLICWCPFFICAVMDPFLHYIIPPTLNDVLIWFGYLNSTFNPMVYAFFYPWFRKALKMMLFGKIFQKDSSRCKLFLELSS

[2] = target: T2, hTA1 C88S (Homo sapiens, UniProt Q96RJ0, C88S); experiment: GloSensor cAMP accumulation assay, C88S mutant; conditions: C88S
T2 construct: expressed in transfected cells; host or cells: HEK293T
T2 sequence (Q96RJ0 1-339 C88S): T1 sequence (Q96RJ0 1-339 T271A) with C88S, A271T

[3] = target: T3, hTA1 S107C (Homo sapiens, UniProt Q96RJ0, S107C); experiment: GloSensor cAMP accumulation assay, S107C mutant;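 note: cells transiently co-expressing receptor and GloSensor biosensor, luminescence read after 30 min agonist exposure at room temperature, concentration-response fitted by nonlinear regression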
T3 construct: expressed in transfected cells; host or cells: HEK293T
T3 sequence (Q96RJ0 1-339 S107C): T1 sequence (Q96RJ0 1-339 T271A) with S107C, A271T

[4] = target: T4, hTA1 F195T (Homo sapiens, UniProt Q96RJ0, F195T); experiment: GloSensor cAMP accumulation assay, F195T mutant;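 note: cells transiently co-expressing HA-FLAG-tagged hTA1 and the GloSensor cAMP biosensor, luminescence read 30 min after agonist addition at room temperature, concentration-response fitted by nonlinear regression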
T4 construct: expressed in transfected cells; host or cells: HEK293T
T4 sequence (Q96RJ0 1-339 F195T): T1 sequence (Q96RJ0 1-339 T271A) with F195T, A271T

[5] = target: T5, hTA1 I290Y (Homo sapiens, UniProt Q96RJ0, I290Y); experiment: GloSensor cAMP accumulation assay, I290Y mutant; conditions: for Normalized Luminescence Counts for Concentration Response Curves: I120Y, log[Agonist], single replicates; for cAMP accumulation response, normalized (concentration-response source data, single replicate values): hTA1 I290Y (N=3), log[Compound];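 for cAMP accumulation response, normalized (concentration-response source data, single replicate values): normalized to the maximum response of β-PEA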
T5 construct: expressed in transfected cells; host or cells: HEK293T
T5 sequence (Q96RJ0 1-339 I290Y): T1 sequence (Q96RJ0 1-339 T271A) with A271T, I290Y

NCCc1ccccc1 [β-PEA, β-phenethylamine]
reduction in potency vs wild type ([1]; T271A): about 10 fold
ΔpEC50 values (each mutant value - WT average), Mean ([1]; T271A mutant minus WT average, Figure 5B): -1.015 and -0.8638
pEC50 values, Mean ([1]; T271A mutant, Figure 5B, each row one independent experiment (3 replicates)): 6.079 and 6.23
Emax values, Mean ([1]; T271A mutant, Figure 5B, β-PEA = 100, each row one independent experiment (3 replicates)): 100
Span ± SEM (Emax normalized to β-PEA) ([1]; T271A, n=2): 100 ± 2.03
pEC50 ± SEM ([1]; T271A, n=2): 6.15 ± 0.03
EC50 ([1]; T271A, n=2, read-out: EC50): 701 nM
Emax values ([2]; Mean of fit per experiment): 100
pEC50 values ([2]; Mean of fit per experiment): 7.013 and 7.137
Span ± SEM (Emax normalized to β-PEA) ([2]; n=2): 100 ± 2.93
pEC50 ± SEM ([2]; n=2): 7.08 ± 0.06
EC50 ([2]; n=2, read-out: EC50): 84.1 nM
ΔEmax values (each mutant value - WT average) ([3]; S107C mutant minus WT average): 0
Emax values, Mean ([3]; S107C mutant, β-PEA = 100, each line an independent experiment, 3 replicates): 100
Span ± SEM (Emax normalized to β-PEA) ([3]; S107C, n=2): 100 ± 3.55
pEC50 ± SEM ([3]; S107C, n=2): 6.69 ± 0.71
EC50 ([3]; S107C, n=2, read-out: EC50): 205 nM
increase in potency vs wild type ([4]; F195T): ~ 3.5 fold
ΔpEC50 values (each mutant value - WT average), Mean ([4]; F195T mutant minus WT average, Figure 5B): 0.6087 and 0.4606
pEC50 values, Mean ([4]; F195T mutant, Figure 5B, each row one independent experiment (3 replicates)): 7.7022 and 7.554
Emax values, Mean ([4]; F195T mutant, Figure 5B, β-PEA = 100, each row one independent experiment (3 replicates)): 100
Span ± SEM (Emax normalized to β-PEA) ([4]; F195T, n=2): 100
pEC50 ± SEM ([4]; F195T, n=2): 7.63 ± 0.07
EC50 ([4]; F195T, n=2, read-out: EC50): 23.5 nM
Normalized Luminescence Counts for Concentration Response Curves ([5]; M -5): 106.77 and 91.3809 and 125.546 and 108.456 and 111.021 and 107.357 and 101.946 and 94.0497 and 113.225
Normalized Luminescence Counts for Concentration Response Curves ([5]; M -6): 87.3796 and 52.2914 and 77.8381 and 75.4765 and 68.8807 and 65.9492 and 71.4902 and 68.1063 and 59.0825
Normalized Luminescence Counts for Concentration Response Curves ([5]; M -7): 31.0537 and 19.6655 and 31.3615 and 25.6411 and 22.3431 and 26.3739 and 25.2433 and 15.0915 and 12.8355
Normalized Luminescence Counts for Concentration Response Curves ([5]; M -8): 5.199 (2×) and 2.121 and 24.1753 and 3.655 and 1.823 and 1.556 and -1.828 and -0.7002
Normalized Luminescence Counts for Concentration Response Curves ([5]; M -9): -0.341 (2×) and -2.496 and 2.189 and -2.575 and -4.773 and 0.4278 and -1.828 and -2.956
Normalized Luminescence Counts for Concentration Response Curves ([5]; M -10): -0.0332 (2×) and -1.88 and -5.873 and -4.407 and -4.773 and 2.684 and -1.828 and -0.7002
Normalized Luminescence Counts for Concentration Response Curves ([5]; M -11): 0.5824 (2×) and -1.264 and -5.506 and -5.14 and -3.674 and -1.828 (3×)
Normalized Luminescence Counts for Concentration Response Curves ([5]; M -12): 1.506 and -1.88 and -0.341 and -3.674 and -4.773 and 8.4185 and 1.556 (2×) and 2.684
Span ± SEM (Emax normalized to β-PEA) ([5]; I290Y): 100 ± 3.64
pEC50 ± SEM ([5]; I290Y): 6.43 ± 0.07
ΔEmax values (each mutant value - WT average) ([5]; I290Y minus WT average): 0
ΔpEC50 values (each mutant value - WT average), Mean ([5]; I290Y minus WT average): -0.6326 and -0.5624 and -0.7969
EC50 ([5]; I290Y, read-out: EC50): 372 nM
pEC50 values, Mean ([5]; I290Y, single experiments (3 replicates each)): 6.461 and 6.531 and 6.297
Emax values, Mean ([5]; I290Y, single experiments (3 replicates each), β-PEA = 100): 100
cAMP accumulation response, normalized (concentration-response source data, single replicate values) ([5]; M = -5): 106.77 and 91.3809 and 125.546 and 108.456 and 111.021 and 107.357 and 101.946 and 94.0497 and 113.225
cAMP accumulation response, normalized (concentration-response source data, single replicate values) ([5]; M = -5.522): 77.8381 and 72.2978 and 82.1471 and 73.6443 and 85.0039 and 85.3703 and 81.642 and 86.1539 and 57.9545
cAMP accumulation response, normalized (concentration-response source data, single replicate values) ([5]; M = -6): 87.3796 and 52.2914 and 77.8381 and 75.4765 and 68.8807 and 65.9492 and 71.4902 and 68.1063 and 59.0825
cAMP accumulation response, normalized (concentration-response source data, single replicate values) ([5]; M = -6.522): 54.4459 and 35.6706 and 50.4446 and 60.0862 and 56.7882 and 48.7266 and 47.8027 and 37.651 (2×)
cAMP accumulation response, normalized (concentration-response source data, single replicate values) ([5]; M = -7): 31.0537 and 19.6655 and 31.3615 and 25.6411 and 22.3431 and 26.3739 and 25.2433 and 15.0915 and 12.8355
cAMP accumulation response, normalized (concentration-response source data, single replicate values) ([5]; M = -7.522): 12.5863 and 7.662 and 9.508 and 11.7164 and 13.1822 and 20.5109 and 7.196 and 4.9397 and 3.812
cAMP accumulation response, normalized (concentration-response source data, single replicate values) ([5]; M = -8): 5.199 (2×) and 2.121 and 24.1753 and 3.655 and 1.823 and 1.556 and -1.828 and -0.7002
cAMP accumulation response, normalized (concentration-response source data, single replicate values) ([5]; M = -8.522): 0.8902 and -1.264 and -0.0332 and -1.109 and -1.842 and -4.04 and 0.4278 and -2.956 and -0.7002
cAMP accumulation response, normalized (concentration-response source data, single replicate values) ([5]; M = -9): -0.341 (2×) and -2.496 and 2.189 and -2.575 and -4.773 and 0.4278 and -1.828 and -2.956
cAMP accumulation response, normalized (concentration-response source data, single replicate values) ([5]; M = -9.522): -0.9566 and -2.803 and -1.264 and -1.109 and -0.7424 and -1.475 and 0.4278 and -4.0841 and -0.7002
cAMP accumulation response, normalized (concentration-response source data, single replicate values) ([5]; M = -10): -0.0332 (2×) and -1.88 and -5.873 and -4.407 and -4.773 and 2.684 and -1.828 and -0.7002
cAMP accumulation response, normalized (concentration-response source data, single replicate values) ([5]; M = -10.522): -0.6488
